# Entries after “also recorded” stand apart in the source; their conditions may differ. Where two headings read alike, the source gives them in different places. Starred links: 1 amine or outer side, 2 acyl side, 3 side chain; linkers in the order of their positions; H or OH if unused. Positions of bridges follow the written chain, without caps; N, C: chain ends. Non-standard residues stand in square brackets, D forms with d. Residues, ends and D or L forms follow the SMILES beside them. *: point of attachment. Orn(4R-OH,5R-OCH2CH2NMe3+) = C[N+](C)(C)CCO[C@@H](N[*:3])[C@H](O)C[C@H](N[*:1])C(=O)[*:2]; pTerphenylCO(4''-OnC5H11) = CCCCCOc1ccc(-c2ccc(-c3ccc(C(=O)*)cc3)cc2)cc1; hTyr(3S-OH,4S-OH) = N[C@H](C(=O)O)[C@H](O)[C@@H](O)c1ccc(O)cc1; Pro(3S-OH,4S-Me) = C[C@H]1CN[C@H](C(=O)O)[C@H]1O; Hyp = O=C(O)[C@@H]1C[C@@H](O)CN1
# Assays:
# [1] = PBS drop test of CD101 IV formulations (Example 4); assay type: physicochemical; conditions: 2 mg/mL in 0.50% Tween 80, 0.76% mannitol, 0.125% sodium lactate in 3.5% dextrose solution, pH ~5.5; 0.25 mL into 1 mL PBS
# Procedure: Solubility of CD101-containing formulations with different percentages of Tween 80 (also referred to as polysorbate 80) was evaluated in a “PBS drop test.” This involved preparing a known concentration of CD101 in a formulation and injecting the formulation into PBS to visually examine for precipitation. This test was used to assess if a CD101-containing formulation would remain soluble in blood during IV infusions.
# (1) 1.25% Tween 80, 5% mannitol, 0.3% glacial acetic acid, pH ˜4.5
# (2) 0.50% Tween 80, 0.76% mannitol, 0.125% sodium lactate in 3.5% dextrose solution, pH ˜5.5
# Different concentrations of CD101 acetate were prepared in vehicles (1) and (2) and tested for solubility in the PBS drop test.
# Add dropwise the formulated solution into PBS solution (1:4 dilution). Visually observe the resulting solution upon addition for any precipitation.
# [2] = Dropwise addition of CD101 acetate 4 mg/mL solutions to 0.9% saline solution or PBS buffer, observed for drug insolubility; assay type: physicochemical; conditions: 4 mg/mL in 5% dextrose and 0.5% Tween 80, pH 5.4
# cynomolgus monkeys = assay: Single-dose intravenous infusion tolerability study; assay type: in vivo
# Procedure: The objective of this study was to evaluate and compare the tolerability of CD101 when administered once by either a 20-minute or 60-minute intravenous infusion to cynomolgus monkeys. In addition, a vehicle similar to the intended initial clinical formulation was assessed when administered once by 20-minute intravenous infusion up to the highest feasible dose (10 mg/kg).
# This study was divided into 2 phases (Table 8). In phase 1, CD101 acetate was administered in vehicle-1 (1.25% Tween 80, 5% mannitol, 0.3% glacial acetic acid adjusted to pH 4.5±0.1) as a single 20-minute (±2 minutes) intravenous infusion to 1 animal/sex/group at 0 and 30 mg/kg (Groups 1 and 2, respectively). In addition, CD101 acetate was administered in vehicle-1 as a single 60-minute (±5 minutes) intravenous infusion to 1 animal/sex/group at 0 and 30 mg/kg (Groups 3 and 4, respectively).
# Dosing was staggered so that Group 5 was dosed 2 days after Groups 1-4.
# [3] = PBS buffer drop test (Example 3); assay type: physicochemical
# Procedure: These solutions were tested for solubility in the PBS drop test, which involved adding the solution dropwise into PBS solution (1:4.3 dilution) and visually observing the resulting solution for any precipitation. PBS buffer serves as a surrogate for plasma, and the PBS drop test is used to evaluate the potential for insolubility as the drug enters the bloodstream at the injection site.
# [4] = Dropwise addition of CD101 acetate 4 mg/mL solutions to 0.9% saline solution or PBS buffer, observed for drug insolubility; assay type: physicochemical
# Procedure: CD101 acetate 20 mg/kg dose was prepared in w/w in 5% dextrose solution (CD101 acetate at 4 mg/mL solution) for the following solutions using the salt to free base correction factor of 0.8784 for CD101 acetate: […]
# 0.5% w/w Tween 80 used. The pH of the solution is 5.21 (22.8 mg CD101 acetate into 5 mL 5% Dextrose with 0.5% w/w Tween 80 (0.1 g Tween 80+19.9 g 5% Dextrose))
# 1.0% w/w Tween 80 used. The pH of the solutions is 5.27 (22.9 mg CD101 acetate into 5 mL 5% Dextrose with 1.0% w/w Tween 80 (0.2 g Tween 80+19.8 g 5% Dextrose))
# 2.5% w/w Tween 80 used. The pH of the solutions is 5.29 (22.7 mg CD101 acetate into 5 mL 5% Dextrose with 2.5% w/w Tween 80 (0.5 g Tween 80+[…] 5% Dextrose))
# 1.0% w/w Tween 80 used. The pH of the solution was adjusted to 6.64 using 0.1 N NaOH. (22.9 mg CD101 acetate into 5 mL 5% Dextrose with 1.0% w/w Tween 80 (0.2 g Tween 80+19.8 g 5% Dextrose))
# [5] = Solubility of CD101 acetate in various media; assay type: physicochemical
# Description: Table 1 below provides the solubility of CD101 acetate in different solutions.
# [6] = 4 mg/mL in 5% dextrose and 1.0% Tween 80, adjusted to 6.64 pH using 0.1N NaOH
# [7] = 4 mg/mL in 5% dextrose and 1.0% Tween 80, pH 5.3
# [8] = 4 mg/mL in 5% dextrose and 2.5% Tween 80, pH 5.3
compound,measurement,setting,value
"CCCCCOc1ccc(-c2ccc(-c3ccc(C(=O)N[C@H]4C[C@@H](O)[C@@H](OCC[N+](C)(C)C)NC(=O)[C@@H]5[C@@H](O)[C@@H](C)CN5C(=O)[C@H]([C@@H](C)O)NC(=O)[C@H]([C@H](O)[C@@H](O)c5ccc(O)cc5)NC(=O)[C@@H]5C[C@@H](O)CN5C(=O)[C@H]([C@@H](C)O)NC4=O)cc3)cc2)cc1 [CD101 acetate] ({pTerphenylCO(4''-OnC5H11)}-[Orn(4R-OH,5R-OCH2CH2NMe3+)]T[Hyp][hTyr(3S-OH,4S-OH)]T[Pro(3S-OH,4S-Me)]; lactam 1-C)",Time the formulated solution remained soluble in PBS,[1],at least 1 hour
same,Appearance after 1.5 mL added to (A) 5 mL 0.9% saline solution,[2],clear
same,Tolerability in vehicle similar to intended clinical formulation,"cynomolgus monkeys; 10 mg/kg (highest feasible dose), 20-minute IV infusion in vehicle-2 (0.50% Tween 80, 0.76% mannitol, 0.125% sodium lactate in 3.5% dextrose, pH 5.5)",can be administered safely
same,Tolerability of 20-minute versus 60-minute infusion,"cynomolgus monkeys; single IV infusion 30 mg/kg in vehicle-1 (1.25% Tween 80, 5% mannitol, 0.3% glacial acetic acid, pH 4.5)",no differences that could be attributed to the duration of infusion; also recorded: no differences between the tolerability of a 20-minute and 60-minute infusion
same,Clinical observations,"cynomolgus monkeys; single IV infusion, 30 mg/kg in vehicle-1 (20 or 60 min) or 10 mg/kg in vehicle-2 (20 min)",No other remarkable clinical observations
same,Appearance upon PBS drop test,"[3]; 0.3% acetic acid, 1.25% Tween 80 and 5% mannitol, pH 4.5, 6.0 mg/mL, 1.4 mg/mL in PBS",Clear
same,Appearance upon PBS drop test,"[3]; 0.3% acetic acid, 2.5% Tween 80 and 5% mannitol, pH 4.5, 4 mg/mL, 0.92 mg/mL in PBS",Clear
same,Appearance upon PBS drop test,"[3]; 0.3% acetic acid, 2.5% Tween 80 and 5% mannitol, pH 4.5, 6.0 mg/mL, 1.4 mg/mL in PBS",Clear
same,Appearance upon PBS drop test,"[3]; 0.3% acetic acid, 2.5% Tween 80 and 5% mannitol, pH 4.5, 8.0 mg/mL, 1.8 mg/mL in PBS",Clear
same,Appearance upon PBS drop test,"[3]; 0.9% Saline, pH 5.3, 2.8% Tween 80, 4 mg/mL",Clear
same,Appearance upon PBS drop test,"[3]; 0.9% Saline, pH 6.6, 2.5% Tween 80, 4 mg/mL",Clear
same,Appearance upon PBS drop test,"[3]; 0.9% Saline, pH 7.2, 1.75% Tween 80, 4 mg/mL",Clear
same,Appearance upon PBS drop test,"[3]; 0.9% Saline, pH 7.2, 2.5% Tween 80, 4 mg/mL",Clear
same,Appearance upon PBS drop test,"[3]; 0.9% Saline, reverse addition (CD101 acetate and Tween 80 mixed first, then saline added), 1.75% Tween 80, 4 mg/mL",Clear
same,Appearance upon PBS drop test,"[3]; 5% Mannitol/25 mM Na Acetate, pH 4.63, 2.5% Tween 80, 4 mg/mL",Clear
same,Appearance upon PBS drop test,"[3]; 5% Mannitol/30 mM Na Lactate, pH 5.45, 2.5% Tween 80, 4 mg/mL",Clear
same,Appearance upon PBS drop test,"[3]; 5% Mannitol/0.3% Acetic Acid, pH 3.54, 2.5% Tween 80, 4 mg/mL",Clear
same,Appearance upon PBS drop test,"[3]; PBS buffer pH 7.4, pH 7.13, 1.75% Tween 80, 4 mg/mL",Clear
same,Appearance after 1.5 mL added to (A) 5 mL 0.9% saline solution,[4]; [6],Clear
same,Appearance after 1.5 mL added to (B) 5 mL PBS buffer,[4]; [6],Clear
same,Appearance after 1.5 mL added to (A) 5 mL 0.9% saline solution,[4]; [7],Clear
same,Appearance after 1.5 mL added to (B) 5 mL PBS buffer,[4]; [7],Clear
same,Appearance after 1.5 mL added to (A) 5 mL 0.9% saline solution,[4]; [8],Clear
same,Appearance after 1.5 mL added to (B) 5 mL PBS buffer,[4]; [8],Clear
same,solubility,"[5]; 15 mM potassium chloride, saline or isotonic, Potassium chloride (15 mM), read-out: Solubility",> 1700 µg/mL
same,solubility,"[5]; 50 mM acetate buffer with 0.4% Tween 20, aqueous with cosolvent or surfactant or cyclodextrin, 50 mM Acetate buffer pH 4.5 with 0.4% Tween 20, maximum solubility not reached, read-out: Solubility",> 31300 µg/mL
same,solubility,"[5]; 100 mM lactate buffer, aqueous buffer, Lactate buffer (100 mM), pH 6.5, maximum solubility not reached, read-out: Solubility",> 48000 µg/mL
same,solubility,"[5]; 100 mM lactate buffer, aqueous buffer, Lactate buffer (100 mM), pH 7.4, maximum solubility not reached, read-out: Solubility",> 51000 µg/mL
same,solubility,"[5]; 100 mM phosphate buffer, pH 7.4, aqueous buffer, read-out: Solubility",7 to 10 µg/mL
same,solubility,"[5]; 150 mM KCl, saline or isotonic, KCl (150 mM), read-out: Solubility",< 200 µg/mL
same,solubility,"[5]; 150 mM potassium chloride, saline or isotonic, Potassium chloride (150 mM), read-out: Solubility",160 µg/mL
same,solubility,"[5]; 0.9% saline with 0.125% Tween 80, aqueous with cosolvent or surfactant or cyclodextrin, 0.9% Saline (USP) with 0.125% Tween 80, read-out: Solubility",> 800 µg/mL
same,solubility,"[5]; 0.9% saline with 0.5% Tween 80, aqueous with cosolvent or surfactant or cyclodextrin, 0.9% Saline (USP) with 0.5% Tween 80, read-out: Solubility",> 3500 µg/mL
same,solubility,"[5]; 0.9% saline with 1% Tween 20, aqueous with cosolvent or surfactant or cyclodextrin, 0.9% Saline (USP) with 1% Tween 20, maximum solubility not reached, read-out: Solubility",> 2600 µg/mL
same,solubility,"[5]; 0.9% saline with 2.5% Tween 80, aqueous with cosolvent or surfactant or cyclodextrin, 0.9% Saline (USP) with 2.5% Tween 80 (polysorbate 80), read-out: Solubility",> 3500 µg/mL
same,solubility,"[5]; 0.9% saline with 4% dodecylmaltoside and 1% Tween 20, aqueous with cosolvent or surfactant or cyclodextrin, 0.9% Saline Solution (USP), 4% dodecylmaltoside (DDM), 1% Tween 20, maximum solubility not reached, read-out: Solubility",> 10000 µg/mL
same,solubility,"[5]; 0.9% saline with 7% tetradecylmaltoside, aqueous with cosolvent or surfactant or cyclodextrin, 0.9% Saline Solution (USP), 7% tetradecylmaltoside (TDM), maximum solubility not reached, read-out: Solubility",> 11000 µg/mL
same,Solubility in words,[5]; PBS buffer,nearly insoluble
same,solubility,"[5]; PBS buffer with 2.5% Tween 80, pH 7.4, aqueous with cosolvent or surfactant or cyclodextrin, read-out: Solubility",> 4000 µg/mL
same,solubility,"[5]; Water (USP), maximum solubility not reached, read-out: Solubility",> 100000 µg/mL
same,solubility,"[5]; aqueous buffer, 100 mM Tris buffer, pH 7.4, maximum solubility not reached, read-out: Solubility",> 52000 µg/mL
same,solubility,"[5]; aqueous buffer, 1:10 diluted PBS buffer, pH 7.4, maximum solubility not reached, read-out: Solubility",> 2100 µg/mL
same,solubility,"[5]; aqueous buffer, 5% Citric Acid, maximum solubility not reached, read-out: Solubility",> 18600 µg/mL
same,solubility,"[5]; aqueous buffer, 50-100 mM Acetate buffer, pH 4.5, maximum solubility not reached, read-out: Solubility",> 45000 µg/mL
same,solubility,"[5]; aqueous buffer, Phosphate buffered saline (PBS buffer), pH 7.4, read-out: Solubility",5 to 7 µg/mL
same,solubility,"[5]; aqueous with cosolvent or surfactant or cyclodextrin, 0.3% acetic acid, 5% mannitol, 2.5% Tween 80, pH 4.5, maximum solubility not reached, read-out: Solubility",> 15000 µg/mL
same,solubility,"[5]; aqueous with cosolvent or surfactant or cyclodextrin, 0.85% Tween 80 in PBS buffer, pH 7.4, maximum solubility not reached, read-out: Solubility",> 4100 µg/mL
same,solubility,"[5]; aqueous with cosolvent or surfactant or cyclodextrin, 2.5% Tween 80, 5% mannitol, 0.3% acetic acid, pH 4.5, maximum solubility not reached, read-out: Solubility",> 16000 µg/mL
same,solubility,"[5]; aqueous with cosolvent or surfactant or cyclodextrin, Lactated Ringer's Solution for Injection (USP), prepared from stock in USP water with 0.7% Tween 20, maximum solubility not reached, read-out: Solubility",> 800 µg/mL
same,solubility,"[5]; aqueous with cosolvent or surfactant or cyclodextrin, PBS buffer with 1% Tween 20, pH 7.4, maximum solubility not reached, read-out: Solubility",> 370 µg/mL
same,solubility,"[5]; saline or isotonic, 0.09% Saline, maximum solubility not reached, read-out: Solubility",> 1400 µg/mL
same,solubility,"[5]; saline or isotonic, 0.225% Saline (USP), maximum solubility not reached, read-out: Solubility",> 1200 µg/mL
same,solubility,"[5]; saline or isotonic, 0.45% Saline (USP), maximum solubility not reached, read-out: Solubility",> 1300 µg/mL
same,solubility,"[5]; saline or isotonic, 0.9% Saline (USP), read-out: Solubility",< 180 µg/mL
same,solubility,"[5]; saline or isotonic, 5% D-Mannitol, maximum solubility not reached, read-out: Solubility",> 4000 µg/mL
same,solubility,"[5]; saline or isotonic, 5% Dextrose Solution (USP), maximum solubility not reached, read-out: Solubility",> 12000 µg/mL
same,solubility,"[5]; saline or isotonic, 5% dextrose, 5% mannitol and 0.22%-0.45% Sterile Saline Solution, read-out: Solubility (soluble)",> 1000 µg/mL
same,solubility,"[5]; saline or isotonic, Lactated Ringer's Solution for Injection (USP), read-out: Solubility",< 100 µg/mL
